Data: patent US6936631B2, “Bicyclic imidazo-5-yl-amine derivatives” (Gruenenthal GmbH, priority 1999, dated 2005)

Tested on: α2-subtype of the human α-adrenergic receptor
Assay: SPA assay for affinity for the α2-subtype of the human α-adrenergic receptor (high throughput screening)
Assay type: binding
Conditions: at a concentration of 10 μM
Experimental: The compounds according to the invention are ligands of the pain-relevant α2-subtype of the human α-adrenergic receptor. The affinity for the α2-subtype of the human α-adrenergic receptor was determined by means of a conventional SPA assay for high throughput screening, such as is described in John P. Devlin, High Throughput Screening, Marcel Dekker Inc. 1997, page 307 to 316. This literature is incorporated herein by reference and thus forms part of the disclosure. The following affinities were determined at a concentration of 10 μM: […]

Structure (SMILES) | alpha2 affinity, 10 μM [%]
CCCCNc1c(-c2ccc(C(C)(C)C)cc2)nc2sc(C)cn12 [Example 42, Butyl-[6-(4-tert-butyl-phenyl)-2-methyl-imidazo[2,1-b]thiazol-5-yl]-amine] | 36
CC(C)(C)Nc1c(-c2ccccc2F)nc2nc[nH]n12 [Example 43, tert-Butyl-[5-(2-fluorophenyl)-imidazo[1,2-b][1,2,4]triazol-6-yl]-amine] | 34
CC(C)(C)Nc1c(-c2ccccc2F)nc2sccn12 [Example 44, tert-Butyl-[6-(2-fluorophenyl)-imidazo[2,1-b]thiazol-5-yl]-amine] | 38
CC(C)(C)Nc1c(-c2cccc3ccccc23)nc2nc[nH]n12 [Example 45, tert-Butyl-(5-naphthalen-1-yl-imidazo[1,2-b][1,2,4]triazol-6-yl)-amine] | 41
c1ccc2c(-c3nc4nc[nH]n4c3NC3CCCCC3)cccc2c1 [Example 46, Cyclohexyl-(5-naphthalen-1-yl-imidazo[1,2-b][1,2,4]triazol-6-yl)-amine] | 46
CC(C)(C)CC(C)(C)Nc1c(-c2ccccc2Br)nc2nc[nH]n12 [Example 47, [5-(2-Bromophenyl)-imidazo[1,2-b][1,2,4]triazol-6-yl]-(1,1,3,3-tetramethyl-butyl)-amine] | 42
CC(=O)Nc1ccc(-c2nc3nc[nH]n3c2NC2CCCCC2)cc1 [Example 48, N-[4-(6-Cyclohexylamino-imidazo[1,2-b][1,2,4]triazol-5-yl) -phenyl]-acetamide] | 36
Cc1ccc(C)c(-c2nc3nc[nH]n3c2NC(C)(C)C)c1 [Example 49, tert-Butyl-[5-(2,5-dimethyl-phenyl)-imidazo[1,2-b][1,2,4]triazol-6-yl]-amine] | 38
Cc1ccc(-c2nc3sccn3c2NC2CCCCC2)c(C)c1 [Example 50, Cyclohexyl-[6-(2,4-dimethyl-phenyl)-imidazo[2,1-b]thiazol-5-yl]-amine] | 36

The remaining lines, values ahead:

alpha2 affinity, 10 μM [%] | Structure (SMILES)
39 | Cc1ccc(C)c(-c2nc3sccn3c2NC2CCCCC2)c1 [Example 51, Cyclohexyl-[6-(2,5-dimethylphenyl)-imidazo[2,1-b]thiazol-5-yl]-amine]
51 | CC(=O)N(c1c(-c2ccc(C)cc2)nc2sccn12)C(C)(C)C [Example 52, N-tert-Butyl-N-(6-p-tolyl-imidazo[2,1-b]thiazol-5-yl)-acetamide]
43 | Cc1ccc(-c2nc3nc[nH]n3c2NC(C)(C)CC(C)(C)C)c(C)c1 [Example 53, [5-(2,4-dimethyl-phenyl)-imidazo[1,2-b][1,2,4]triazol-6-yl]-(1,1,3,3-tetramethyl-butyl) -amine]
56 | Cc1ccc(C)c(-c2nc3nc[nH]n3c2NC(C)(C)CC(C)(C)C)c1 [Example 54, [5-(2,5-Dimethyl-phenyl)-imidazo [1,2-b][1,2,4]triazol-6-yl]-(1,1,3,3-tetramethyl-butyl) -amine]
39 | CCCCN(C(C)=O)c1c(-c2c(F)cccc2Cl)nc2nc[nH]n12 [Example 55, N-Butyl-N-[5-(2-chloro-6-fluorophenyl)-imidazo[1,2-b][1,2,4]triazol-6-yl]-acetamide]
46 | CCCCN(C(C)=O)c1c(-c2ccc(C(C)(C)C)cc2)nc2sc(C)cn12 [Example 56, N-Butyl-N-[6-(4-tert-butyl-phenyl)-2-methyl-imidazo[2,1-b]thiazol-5-yl]-acetamide]
